Experimental data reported in patent US6410735B1, “1-(4-arylpiperazin-1-y1)-ω-[N-(α,ω-dicarboximido)]-alkanes useful as uro-selective α1-adrenoceptor blockers” (Ranbaxy Laboratories Limited, priority 1997, dated 2002).

Key:
α1B-adrenoceptor = biological target: T1, α1B-adrenoceptor (Rattus norvegicus, UniProt P15823); experiment: Receptor binding assay, [3H]prazosin, rat liver membranes; details: rat liver membranes, 0.5 nM [3H]prazosin; read-out: RBA (Ki nM) α1B
T1 construct: from tissue; host or cells: rat liver membranes
T1 sequence (P15823 1-515): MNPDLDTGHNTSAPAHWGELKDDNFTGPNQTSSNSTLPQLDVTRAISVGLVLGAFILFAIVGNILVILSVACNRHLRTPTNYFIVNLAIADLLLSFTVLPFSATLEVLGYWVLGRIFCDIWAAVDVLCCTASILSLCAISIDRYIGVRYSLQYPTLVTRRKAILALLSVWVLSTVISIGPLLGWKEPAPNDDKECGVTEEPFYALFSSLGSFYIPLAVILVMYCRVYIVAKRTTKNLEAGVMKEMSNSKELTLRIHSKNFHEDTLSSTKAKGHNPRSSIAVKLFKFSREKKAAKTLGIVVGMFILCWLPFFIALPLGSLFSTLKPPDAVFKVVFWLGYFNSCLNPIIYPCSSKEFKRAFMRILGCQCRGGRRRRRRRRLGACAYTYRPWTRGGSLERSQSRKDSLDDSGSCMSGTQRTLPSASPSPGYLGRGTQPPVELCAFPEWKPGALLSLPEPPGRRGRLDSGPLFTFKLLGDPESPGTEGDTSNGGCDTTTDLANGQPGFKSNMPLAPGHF
Description: Receptor binding assays, (RBA's) were performed for native α1-adrenoceptors. Rat submaxillary and rat liver membrane preparations were used to assess the affinity for α1A and α1B subtypes, respectively. Aliquots of membrane protein ([…]) were incubated in a final volume of […] assay buffer (50 mM Tris, 0.5 mM EDTA at pH 7.4) with 0.5 nM [^3H] prazosin for 60 mins at 28 ° C. Reaction was stopped by rapid filtration on Millipore filters. Filters were dried and bound radioactivity counted. Non-specific binding was determined in the presence of 0.3 mM prazosin.

α1D-adrenoceptor (aorta) = biological target: T2, α1D-adrenoceptor (aorta) (Rattus norvegicus, UniProt P23944); experiment: In vitro functional assay, norepinephrine-induced contraction of isolated aorta; assay type: cell-based; details: rat aorta, norepinephrine; read-out: In Vitro Functional Assay (pKB) α1D (converted)
T2 construct: Aorta, prostate and spleen tissues were isolated from urethane anaesthetized (1.5 gm/kg) male wistar rats; from tissue; host or cells: isolated aorta of male Wistar rats
T2 sequence (P23944 1-561): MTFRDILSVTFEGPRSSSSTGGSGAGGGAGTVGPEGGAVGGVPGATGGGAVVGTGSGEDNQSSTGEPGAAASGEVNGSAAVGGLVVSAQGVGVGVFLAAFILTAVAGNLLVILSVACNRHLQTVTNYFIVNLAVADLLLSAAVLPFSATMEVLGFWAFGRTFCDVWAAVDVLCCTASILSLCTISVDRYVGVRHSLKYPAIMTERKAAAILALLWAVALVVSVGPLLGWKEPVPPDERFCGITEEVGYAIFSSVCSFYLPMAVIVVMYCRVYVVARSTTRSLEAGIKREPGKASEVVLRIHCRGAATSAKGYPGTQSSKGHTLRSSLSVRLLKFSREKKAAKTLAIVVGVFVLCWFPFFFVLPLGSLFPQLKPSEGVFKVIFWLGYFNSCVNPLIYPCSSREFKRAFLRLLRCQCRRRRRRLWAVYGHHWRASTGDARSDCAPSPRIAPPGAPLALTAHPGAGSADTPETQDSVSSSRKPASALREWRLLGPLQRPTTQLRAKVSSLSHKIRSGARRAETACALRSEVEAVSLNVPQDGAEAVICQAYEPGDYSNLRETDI
Excerpt: (§1) In order to study selectivity of action of the present compounds towards different α-adrenoceptor subtypes, the ability of these compounds to antagonize α1-adrenoceptor agonist induced contractile response of aorta (α1D), prostate (α1A) and spleen (α1B) was studied. Aorta, prostate and spleen tissues were isolated from urethane anaesthetized (1.5 gm/kg) male wistar rats. Isolated tissues were mounted in organ bath containing Krebs Henseleit buffer of the following composition (mM): NaCl 118; KCl 4.7; CaCl2 2.5; MgSO4·H2O 1.2; NaHCO3 25; KH2PO4 1.2; glucose 11.5. Buffer was maintained at 37° C. and aerated with a mixture of 95% O2 and 5% CO2. A resting tension of 2 g (aorta) or 1 g (spleen and prostate) was applied to tissues. Contractile response was monitored using a force displacement transducer and recorded on chart recorders. Tissues were allowed to equilibrate for 2 hours. At the end of equilibration period, concentration response curves to norepinephrine (aorta) and phenylephrine (spleen and prostate) were obtained in the absence and presence of the tested compound (at concentrations of 0.1, 1 and 10 μM). Antagonist affinity was calculated and expressed as PKB values in Table 1.

[1] = system: anaesthetized dogs (intraurethral pressure); experiment: In vivo selectivity study, phenylephrine response on intraurethral (prostatic) pressure in anaesthetized dogs; design: species or system dog; details: Canis lupus familiaris, iv 0.01-0.3 mg/kg, against phenylephrine, read-out: pseudo pKB Intraurethral Pressure (converted)
Description: Male mongrel dogs (12-20 Kg) were anaesthetized with pentobarbitone sodium (35 mg/kg, iv). Trachea was intubated for artificial respiration. Femoral artery and femoral vein were cannulated for recording blood pressure and for administration of drug solutions, respectively. Blood pressure was recorded on a polygraph through a pressure transducer. A paramedian incision was made lateral to the penis and the bladder was exposed. Urine was drained through a cannula put directly into the bladder and it was guided into the urethra gently and was placed at the prostatic urethra. Balloon was inflated with 2 cc air and its placement was confirmed by digital pressure. Intraurethral pressure was recorded on the polygraph through a pressure transducer. Graded dose response relationship of phenylephrine (1-16 μg/kg, iv) was obtained on prostatic pressure and blood pressure, prior to administration of the compounds of the present invention. Compounds 2, 9, and 13 (at dosages of 0.01, 0.03, 0.1, and 0.3 mg/kg) were administered intravenously 10 min before obtaining phenylephrine dose response curves. Results were analyzed and pseudo PKB values were calculated as described in Kenny et al (1996).

[2] = biological target: T3, α1A-adrenoceptor (prostate) (Rattus norvegicus, UniProt P43140); experiment: In vitro functional assay, phenylephrine-induced contraction of isolated prostate; assay type: cell-based; details: rat prostate, phenylephrine; read-out: In Vitro Functional Assay (pKB) α1A (converted)
T3 construct: Aorta, prostate and spleen tissues were isolated from urethane anaesthetized (1.5 gm/kg) male wistar rats; from tissue; host or cells: isolated prostate of male Wistar rats
T3 sequence (P43140 1-466): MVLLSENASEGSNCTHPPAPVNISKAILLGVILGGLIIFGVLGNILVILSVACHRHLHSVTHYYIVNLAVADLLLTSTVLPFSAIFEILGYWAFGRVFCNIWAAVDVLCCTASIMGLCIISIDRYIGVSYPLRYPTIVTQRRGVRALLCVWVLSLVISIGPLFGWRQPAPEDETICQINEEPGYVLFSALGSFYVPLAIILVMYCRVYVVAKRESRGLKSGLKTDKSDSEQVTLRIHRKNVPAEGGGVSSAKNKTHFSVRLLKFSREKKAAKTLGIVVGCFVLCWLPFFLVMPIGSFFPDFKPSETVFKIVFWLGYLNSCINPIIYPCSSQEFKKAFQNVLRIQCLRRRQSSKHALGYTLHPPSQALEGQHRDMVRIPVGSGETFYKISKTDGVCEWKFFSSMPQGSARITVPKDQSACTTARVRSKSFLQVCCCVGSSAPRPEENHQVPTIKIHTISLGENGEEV
Excerpt: as §1

| SMILES | Ki (α1B-adrenoceptor) [nM] | Kb (α1D-adrenoceptor (aorta)) [nM] | Kb [1] [nM] | Kb [2] [nM] |
| --- | --- | --- | --- | --- |
| COc1ccccc1N1CCN(CCCN2C(=O)CCC2=O)CC1 [Compound 2, 1-[4-(2-Methoxyphenyl)piperazin-1-yl]3-(2,5-dioxopyrrolidin-1-yl)propane] | 244 | 50.1 | 25.1 | 2 |
| COc1ccccc1N1CCN(CCCN2C(=O)CCCC2=O)CC1 [Compound 13, 1-[4-(2-Methoxyphenyl)piperazin-1-yl]-3-(2,6-dioxopiperidin-1-yl)propane] | 168 | 12.6 | 7.94 | 2.51 |
| COc1ccccc1N1CCN(CCCCN2C(=O)CCC2=O)CC1 [Compound 9, 1-[4-(2-Methoxyphenyl)piperazin-1-yl]-4-(2,5-dioxopyrrolidin-1-yl)butane] | 35 | 5.01 | 12.6 | 1 |
